# Test results taken from patent publication US20220041691A1, “METHODS FOR DIAGNOSING OR TREATING POST-TRAUMATIC STRESS DISORDER, AND COMPOSITIONS THEREFOR” (Centre for Addiction and Mental Health, priority 2018, published 2022).
# Entries after “also recorded” stand apart in the source; their conditions may differ.
# Assays:
# GR-FKBP52 complex = assay: Co-immunoprecipitation of GR-FKBP52 complex in mouse brain slices; assay type: cell-based; settings: 10 μM, 30 min, vs untreated controls or TAT alone, p<0.05, n=3
# Description: To test this hypothesis, the effect of TAT-GRpep on GR-FKBP52 levels was examined using co-immunoprecipitation. […] Similar results were also obtained using confocal microscope in primary mouse neuron cultures.
# (§1) Co-immunoprecipitation and Western blot analyses were performed as previously described.^24, 25, 26 For co-immunoprecipitation, 500˜1000 μg solubilized protein was extracted from whole mouse brain and incubated with primary antibody or control IgG (2˜4 μg) for 4 hrs at 4° C., followed by the addition of 25 μl protein A/G plus agarose (Santa Cruz Biotechnology) for 12 hrs. Pellets were washed, boiled for 5 min in SDS sample buffer and subjected to SDS-PAGE. 50˜100 μg of total protein extract was used as control in each experiment. After transfer of proteins into nitrocellulose, membranes were Western blotted with the primary antibodies. The intensity of protein level was quantified by densitometry (software: ImageLab, Bio-Rad).
# Acute brain slices (350 μm thick) were prepared from C57Bl/6 mice with a McIlwain tissue chopper (Mickle Laboratory Engineering, Gomshall, United Kingdom). After being dissected from the brain, mouse cerebral hemispheres were left for 5 min in ice-cold artificial cerebrospinal fluid (aCSF) containing 126 mM NaCl, 2.5 mM KCl, 1 mM MgCl2, 1 mM CaCl2, 1.25 mM KH2PO4, 26 mM NaHCO3 and 20 mM glucose, which was bubbled continuously with carbogen (95% O2/5% CO2). […]
# fear-conditioned mice [1] = assay: Cued fear conditioning, peptide injected into right amygdala or motor cortex; assay type: in vivo, mouse
# Description: Next, testing was performed to determine whether disrupting the GR-FKBP51 complex could reduce freezing behaviors in fear-conditioned mice as a model for PTSD-related symptoms. […] The animals were then subjected to two days of extinction, where the same cues were presented without foot shock, before cued fear memory was assessed. One hour before the fear memory assessment, animals were injected with either control peptide (TAT) or treatment peptide (TAT-GRpep) into the right amygdala. […] However, two-way ANOVA confirmed a significant effect of the cue (F1, 46=10.387, p<0.01) and peptide (F1,46=7.708, p<0.01). […] Both treatment groups reacted similarly to the cue (p=NS; FIG. 3E).
# Some of the animals were later subjected to implantation of cannula into either amygdala (AP−1.5, LM−3.0, DV−4.8) or motor cortex (AP+2.1, LM−2.0, DV−1.0). Following surgeries, animals were allowed one week to recover before subjected to any experimental procedures.
# Animals were first given a five-minute habituation to the apparatus (Habitest, Colbourne Instruments). Then, animals were exposed to 30 seconds of cue exposure (an in-house white light), which co-terminated with one second of foot-shock (0.5 mA). […]
# The expression of fear (in a different context from training) was assessed 24 hours after the last extinction training. […] The duration of freezing behaviors was recorded by a blinded experimenter. […]
# fear-conditioned mice [2] = assay: Cued fear conditioning, systemic (i.p.) peptide delivery; assay type: in vivo, mouse
# Description: Next, testing was performed to determine whether TAT-GRpep can block the emergence of PTSD-like fear-related behaviours when administrated systemically. Animals underwent five rounds of CS-US pairings followed by 5 days of extinction training before the expression of fear in response to the learned cue was assessed (FIG. 4A). Mice were injected with either TAT-GRpep or TAT intraperitoneally (3 nmol/g, i.p.) one hour before the test.
# Furthermore, testing was performed to determine whether disrupting the GR-FKBP51 complex reduced consolidation of cued fear memory. Thus, TAT or TAT-GRpep was administered two hours after the end of fear conditioning training (FIG. 4C), before five consecutive daily extinction sessions of cue exposure without shock. […] This may therefore indicate a potential approach to both preventing and treating PTSD-like behaviour in the aftermath of trauma, for example.
# Animals were first given a five-minute habituation to the apparatus (Habitest, Colbourne Instruments). Then, animals were exposed to 30 seconds of cue exposure (an in-house white light), which co-terminated with one second of foot-shock (0.5 mA). The cue exposure and foot-shock were repeated five times, intermitted by 5-minute inter-trial intervals. Following the conditioning, animals were subjected to 2-5 days of extinction before the assessment of their cued fear memory, which consisted of 15 rounds of 30-second cue exposure, with 30-second inter-trial intervals (adapted from Andero et al.).^48
# The expression of fear (in a different context from training) was assessed 24 hours after the last extinction training. The assessment consisted of a three-minute period of habituation (absence of CS) and a sequent three-minute trial of conditioned cues. The duration of freezing behaviors was recorded by a blinded experimenter. Peptide treatment was either administered 2 hours after the conditioning or 30 minutes before the behavioral assessment.
# [3] = tested on: GR phosphorylation at S211; assay: Western blot of GR phosphorylation at S211 in brain lysate of fear-conditioned mice; assay type: in vivo, mouse; settings: brain lysate of fear-conditioned mice injected with TAT or TAT-GRpep; p<0.05, n=3
# Text: To further investigate these findings, surface plasmon resonance (SPR) was used to estimate association and dissociation rates between GR and FKBP51. […] Thus, GR S211 phosphorylation seems to reduce GR affinity for FKBP51. Conversely, disruption of the GR-FKBP51 complex with TAT-GRpep could increase GR S211 phosphorylation, which is what was observed when comparing fear-conditioned mice treated with TAT-GRpep vs. TAT control or no treatment (FIG. 5 I-J).
# as §1, with “Bio-Rad). […]” for “Bio-Rad).”
sequence,measurement,setting,value
GRKKRRQRRRPQSPWRSDLLIDENCLL (Amino Acid Sequence of TAT-GRpep Peptide),GR-FKBP52 complex (FKBP52 co-immunoprecipitated by GR antibody),GR-FKBP52 complex,more FKBP52 was co-immunoprecipitated by GR antibody; also recorded: significantly increased the amount of GR-FKBP52 complex
same,"freezing behavior, cued fear memory assessment","fear-conditioned mice [1]; injected into right amygdala one hour before assessment, after two days of extinction, vs control peptide, p<0.01",significantly lower level of freezing behavior; also recorded: significantly less freezing than controls
same,"freezing behavior, cued fear memory assessment","fear-conditioned mice [1]; peptide infused into motor cortex instead of amygdala, p=NS",did not affect freezing
same,duration of freezing with the CS,"fear-conditioned mice [2]; 3 nmol/g i.p. one hour before the test, after 5 days of extinction training, three-minute cue trial, p<0.05",34.1 ± 6.7 s
same,freezing behavior during habituation period without CS,"fear-conditioned mice [2]; 3 nmol/g i.p. one hour before the test, TAT-GRpep vs control group, p=NS",no difference in freezing behavior
same,cued freezing behaviours (FIG. 4D),"fear-conditioned mice [2]; peptide administered after fear conditioning, before extinction sessions, p<0.05",reduced cued freezing behaviours
same,duration of freezing with the CS (consolidation of cued fear memory),"fear-conditioned mice [2]; peptide administered two hours after end of fear conditioning, tested 24 hours after last of five daily extinction sessions, p<0.05",55.9 ± 3.3 s
same,GR phosphorylation at S211,[3],able to block the decrease of GR phosphorylation at S211; also recorded: blocked the decrease in GR S211 phosphorylation
